Measurements reported in US20170340636A1, “COMPOSITIONS AND METHODS FOR INHIBITION OF AUTOPHAGY” (Board of Regents, The University of Texas System, priority 2016, published 2017).

Assays:
TAOK2 [1] = target: T1, TAOK2 (Rattus norvegicus, UniProt Q9JLS3); assay: Radiometric kinase assay; assay type: biochemical; conditions: determined radiometrically; MBP, γ-labeled ATP
T1 construct: made in house
T1 sequence (Q9JLS3 1-320 limits assumed): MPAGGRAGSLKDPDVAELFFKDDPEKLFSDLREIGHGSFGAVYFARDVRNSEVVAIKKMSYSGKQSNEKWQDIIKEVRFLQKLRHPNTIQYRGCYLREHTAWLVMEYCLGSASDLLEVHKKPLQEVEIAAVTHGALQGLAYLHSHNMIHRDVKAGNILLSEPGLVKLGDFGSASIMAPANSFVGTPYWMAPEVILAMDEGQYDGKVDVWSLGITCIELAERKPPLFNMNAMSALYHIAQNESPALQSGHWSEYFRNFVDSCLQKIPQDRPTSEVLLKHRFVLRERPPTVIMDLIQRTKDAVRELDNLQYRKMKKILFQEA
Method: Radiometric activity assays of selected compounds against TAOK2 were conducted. A reaction solution of 0.02 mg/ml TAOK2, 50 mM MgCl2, 50 mM HEPES pH 7.5, 1 mg/ml MBP, and increasing compound concentration was made. The compound/DMSO solution was 5% by volume in the final reaction mixture. An ATP solution of 1:20 0.1 μCi/ml 32P -labeled ATP:1 mg/ml ATP was made. 10 μl of ATP solution was added to 50 μl of reaction solution, and allowed to react for 30 minutes. Reactions were stopped by blotting onto filter paper, then submerging in10% trifluoroacetic acid (TFA). Samples were washed 4 times in TFA, then put into scintillation vials. 5 ml Complete Counting Cocktail 3a70B (Research Products International Corp.) was added, and the vials were counted on a Beckman scintillation counter for 10 minutes.
Compounds SW034538 and SW083688 were both selective in the DSF measurements and effective in the GFP-LC3 degradation assays. These compounds were then chosen for radiometric analysis to determine their IC50 values (Table 1). TAOK2 was incubated with inhibitor, MBP, and γ-labeled ATP and allowed to react for 10 minutes. The concentrations of MBP and ATP were chosen such that the reaction was kept in the linear range for the duration of the experiment. […] IC50 value estimates were calculated from the results of the 200 k rescreen described above. […]

TAOK2 [2] = target: T1, TAOK2; assay: Kinase-Glo high-throughput screen / re-screen of TAOK2 activity (MBP substrate); assay type: biochemical; conditions: estimate from HTS re-screen at 1, 3.3 and 10 μM
Method: TAOK2 activity was screened in a high-throughput fashion using Kinase-Glo (Promega). A 20 μL, solution of 50 mM HEPES pH 7.4, 50 mM MgCl2, 1.27 mg/ml MBP and 0.005 mg/ml TAOK2 was added to each well of a 384 well Corning plate using a Biotek MultiFlo dispenser. 0.2 μl of compound (columns 3 to 22, 50 μM), DMSO negative control (columns 2, 23, and 24), or staurosporine positive control (column 1, 43.4 μM) were then added to each well with a Biomek Liquid handler. 10 μl of 50 μg/ml ATP solution was added to each well with a Labsystems Multidrop384. The plates were incubated at RT for 100 minutes. 20 μl Kinase Glo (Promega) was added to each well, and allowed to incubate for 10minutes under agitation. Luminescence was read on an Envision Multilabel plate reader.
After cherry picking primary hits, the selected compounds were assayed in a limited dose-response format (10, 3.3, and 1 μM) in triplicate using the primary enzymatic assay for TAOK2. The data for each assay well was normalized to the neutral controls. The normalized activity values (replicates) for each compound in each assay were then condensed to a single value (condensed activity) using the “Robust Condensing” method in Genedata Screener®. The condensed activity is the most representative single value of the triplicates. In general, the triplicates were pre-condensed into a pair of values as follows:
In order to study the relationship between TAOK2 and both cancer and autophagy, a high-throughput screen was performed using a 200,000 compound library to discover novel small-molecule kinase inhibitors (FIG. 1A-D). Phosphorylation reactions were performed in a 384 well format against the generic kinase substrate Myelin Basic Protein (MBP) with the addition of compound. Kinase-Glo (Promega) was then added to each well to detect remaining ATP concentration. Thus, inhibitory compounds would decrease TAOK2 activity, which would increase both remaining ATP concentration and luminescence in those wells.
After the initial screen, 1645 compounds were identified with inhibition greater than three σ above the mean DMSO control (FIG. 1A). The Z′ factor of the initial screen across all plates was 0.77, indicating high significance (FIG. 1B). These compounds were then re-screened in triplicate under the same conditions, with the compounds being assayed at three concentrations (1 μM, 3.3 μM, and 10 μM, FIG. 1C, D). 432 compounds were identified after the re-screen with average inhibitions greater than 10 sigma at the 10 μM concentration. The Z′ factor of the confirmation screen was 0.52, again indicating high significance.

Compound	IC50 (TAOK2 [1]) [µM]	IC50 (TAOK2 [2]) [µM]
CCC(=O)Nc1nc(C)c(-c2csc(Nc3cc(OC)ccc3OC)n2)s1 [SW034538]	0.3	–
CCOCCCn1c(=S)[nH]c2cc(C(=O)NCC3COc4ccccc4O3)ccc2c1=O (stereo not drawn) [SW083688]	1.3	–
CS(=O)(=O)c1ccc2nc(NC(=O)CCCOc3ccc(Cl)cc3)sc2c1 [SW172006]	–	5
